The test system of one data set is CT DNA. As to the kind of experiment: quantum yield, free dye and in admixture with CT DNA. It is filed as physicochemical, calf. How it is done:
(§1) Spectrometry and fluorimetry were performed using a SpectraMax384 (Molecular Devices) and a Luminescence Spectrometer LS50B (Perkin Elmer). Fluorescence emission of compound I in complex with DNA and RNA was measured in 50 mM Na phosphate buffer, pH 7.2 at room temperature. Before use, total E. coli RNA was heated to 100° C. for 1 min and immediately transferred on ice for 5 min before mixing with compound I solution. All measurements were carried out at room temperature (20-23° C.) in solutions protected from light and incubated for ˜10-15 min after dilution. The units of b/dye and bp/dye are defined as moles of RNA bases or DNA base pairs per mole of dye. Quantum yield was measured using quinine sulphate as standard as described in (Iupac Commission on Photochemistry, EPA Newsletter of November 1986, 21-29) using FLUOROMAX-3 Spex Spectrofluorometer (HORIBA) and UVIKON XL Spectrophotometer (SECOMAM).
Although compound I also stains mitotic chromosomes (FIG. 1D), theoretically it was possible that it binds specifically to DNA-associated proteins (for example histones) rather than to nucleic acids. To resolve this issue, the absorption and emission spectra of free compound I before and after addition of dsDNA were recorded. […] Molar extinction coefficient (EC) of free compound I at 391 nm was measured at 10,800 cm^−1 M^−1. […]

In data set [1] the test system is ds plasmid DNA or heat-denatured E. coli RNA. Briefly: fluorescence titration with dsDNA versus RNA (selectivity). In kind it is binding. Conditions: for emission strength with DNA relative to RNA: 50 μM DNA or RNA. The protocol: (§2) Plasmid dsDNA was purified using a Qiagen Maxiprep kit and used in the supercoiled form for absorption and fluorescence studies. E. coli total RNA was bought from Ambion, dA/dT and dG/dC homopolymers were purchased from Amersham Biosciences. Calf thymus (CT) high-molecular weight DNA and Hoechst 33258 were obtained from Sigma-Aldrich. Ethidium bromide was purchased from Amresco.
as §1
A number of known fluorescent dyes bind preferentially to dsDNA, while others, like the SYTO dyes, bind similarly well to dsDNA, ssDNA and RNA (Haugland, R. P. et al., supra). Knowing these properties is important to the design of experiments where one or another (or several) type(s) of nucleic acids may be present. To investigate the selectivity of compound I, the inventors have compared fluorescence intensities at 484 nm of the dye incubated with ds plasmid DNA or heat-denatured E. coli RNA. […] At higher dye/b or dye/bp ratio, the difference was smaller (1.8-fold at dye/b(bp) ratio 0.2), meaning that elevated amounts of dye could saturate both types of nucleic acids. The inventors then performed the experiment in the opposite sense, i.e. titrating a fixed amount of compound I at 1 μM with increasing amounts of DNA and RNA.

Data set [2] concerns plasmid DNA. As to the kind of experiment: absorption of free molecules before and after addition of plasmid DNA. It is filed as physicochemical. The arrangement: Absorption maxima free dye / Absorption maxima DNA bound dye: unit not given here. How it is done: as §2, §1
(§3) Although compound I also stains mitotic chromosomes (FIG. 1D), theoretically it was possible that it binds specifically to DNA-associated proteins (for example histones) rather than to nucleic acids. To resolve this issue, the absorption and emission spectra of free compound I before and after addition of dsDNA were recorded. […] Molar extinction coefficient (EC) of free compound I at 391 nm was measured at 10,800 cm^−1 M^−1. In the presence of ds plasmid DNA the absorption peaks of compound I at 373 and 391 nm decreased, and a new peak appears with a maximum at 435 nm (FIG. 1E). An overlay of the absorption spectra in complex with dsDNA at different bp per dye ratios gives a single isosbestic point at 398 nm. Free compound I fluoresces around 438 nm (the exact position of the peak depends on the excitation wavelength). […] At the same time, a new peak evolves with a maximum around 484 nm (FIG. 1F). The exact maximum of fluorescence of compound I/DNA complexes varies insignificantly as a function of the dye/bp ratio and/or base pairs composition of the nucleic acids. […] The quantum yield for compound I (excited at 435 nm) at 5 μM in 50 mM Na-phosphate, pH 7.2, was determined to be 2.7% for free dye and 13.8% in admixture with 50 μM CT DNA.
(§4) To get a further insight into how the structural properties of compound I contribute to its binding to DNA, the inventors analysed fourteen structural analogues present in the compound library. Although several of these compounds are fluorescent in vivo, this property went undetected in the initial screen most likely due to the latency period before the appearance of the signal (see below). To evaluate the activity of compound I-like molecules three tests were used: (1) in vivo, the inventors incubated human fibroblasts in the presence of the molecules and scored nuclear fluorescence in the microscope; (2 and 3) in vitro, the inventors looked at the absorption and fluorescence of free molecules before and after addition of plasmid DNA. […] With the exception of compound I and analogues 8 and 12, accurate in vitro measurement of the fluorescence intensities was impossible because the emission peaks for the free molecules were too close to that for the DNA-bound dye. This affected the height of the dye/DNA peaks.

For data set [3], the system named is plasmid DNA. As to the kind of experiment: fluorescence of free molecules before and after addition of plasmid DNA. Set-up: Fluorescence maxima free dye / Fluorescence maxima DNA bound dye: unit not given beside the values. In kind it is physicochemical. How it is done: as §2, §1, §3, §4
The next data set deals with human fibroblasts. As to the kind of experiment: in vivo nuclear fluorescence of human fibroblasts incubated with the molecules, scored in the microscope. It is filed as cell-based. Set-up: key: Weak: Staining was defined as “weak”, “moderate” or “strong” based on the nuclear signal/background ratio.; Moderate: Staining was defined as “weak”, “moderate” or “strong” based on the nuclear signal/background ratio.; Strong: Staining was defined as “weak”, “moderate” or “strong” based on the nuclear signal/background ratio. As to conditions: 10 μM, 10-60 min (up to 24 hours); Alexa488/FITC filter. The protocol:
In this study, three different types of cells were used: Xenopus epithelial cell line XL177 (Miller, L. et al., 1977, In Vitro, 13, 557-563) stably transformed with a YFP-α-tubulin expressing construct (pEYFP-Tub, Clontech), mouse fibroblasts, and primary human skin fibroblasts. XL177 cells were grown at 20° C. in 60% Leibowitz-15 medium, supplemented with antibiotics, 10% fetal calf serum (FCS) and 10 mM HEPES, pH 7.2 with addition of 0.7 mg/ml G418. Cells were plated into glass-bottom 96-well plates (Greiner, Germany) and left to spread for 24 hours before being incubated in the presence of the test compounds from the Curie-CNRS small molecule library (at 25 or 50 μM final concentration) for another 20-24 hours. Mouse and human fibroblasts were grown in DMEM with antibiotics and 10% FCS at 37° C. in the presence of 5% CO2. The cells were observed using a Zeiss Axiovert 200M microscope with a 40× oil immersion objective and a standard Alexa488/FITC filter (Omega, XF100-2; Ex475AF40/Em535AF45/Dichroic505). Subsequent experiments were carried out using smaller concentrations of compound I and incubation times as described in the text and figures legends. For the in vivo tests of compound I-like compounds, the molecules were added to cell culture medium at 10 μM final concentration and incubated with cells 10-60 min (up to 24 hours) prior to scoring.
as §4

Where [4] appears, read: free molecule, before addition of plasmid DNA.

Values joined by “and” are separate entries in the source; they are usually repeats but may differ in a detail not shown here. Equal values may be shown once.

Turning to `COc1ccc2c(c1)c(C)nc1c3ccc(OC)cc3c(NCCCN(C)C)nc21` [Compound I, N′-(2,8-dimethoxy-12-methyl-dibenzo[c,h][1,5]naphthyridin-6-yl)-N,N-dimethyl-propane-1,3-diamine], the quantum yield with CT DNA (free dye, 5 μM, 50 mM Na-phosphate pH 7.2, excited at 435 nm) worked out at 2.7%. Besides, in the data set on CT DNA (in admixture with 50 μM CT DNA, 5 μM dye, excited at 435 nm), the quantum yield was 13.8%. Further, in data set [1] (1 μM dye), the “saturation of fixed amount of dye by RNA (not saturated)” value is > 250 b/dye and the “saturation of fixed amount of dye by dsDNA” value was ~30 bp/dye. Moreover, in data set [1] (1 μM dye titrated with DNA and RNA, same b(bp)/dye ratios), the “fluorescence with dsDNA relative to RNA” value is 2.5-3.6. The “emission strength with DNA relative to RNA” value in data set [1] (dye/b(bp) ratio 0.2) worked out at 1.8 fold. The “emission strength with DNA relative to RNA” value in data set [1] (low dye/bp and dye/b ratios, 484 nm) is 6 fold. Besides, the “Absorption maxima DNA bound dye” value with plasmid DNA [2] (after addition of plasmid DNA) was 435. The “isosbestic point of absorption spectra” value in the data set on plasmid DNA [2] (complex with dsDNA at different bp per dye ratios) amounted to 398 nm. In addition, the “absorption maxima of free dye” value in the data set on plasmid DNA [2] (free compound) is 224 nm and 245 nm and 283 nm and 326 nm and 373 nm and 391 nm. Further, the “Molar extinction coefficient (EC)” value with plasmid DNA [2] (free dye at 391 nm) is given as 10,800 cm^−1 M^−1. Moreover, the “Absorption maxima free dye” value with plasmid DNA [2] (setting [4]) came out at 394. In the data set with plasmid DNA [2] (in the presence of ds plasmid DNA), the “absorption maximum of new peak” value is 435 nm. Also, in the data set on plasmid DNA [3] (DNA-bound), the “emission maximum of new peak upon DNA binding” value is “around 484 nm” and the “hypsochromic shift of the 438 nm emission peak upon DNA binding” value is 426 nm. The “Fluorescence maxima DNA bound dye” value in the data set on plasmid DNA [3] (after addition of plasmid DNA) was determined as 484. The “emission peak of free dye” value with plasmid DNA [3] (free compound) is on record as “around 438 nm”. The “Fluorescence maxima free dye” value in the data set with plasmid DNA [3] (setting [4]) is listed as 438. Besides, the emission maximum in the data set with plasmid DNA [3] (plasmid DNA at bp/dye ratio 40) was determined as 472 nm. Moreover, in the data set on human fibroblasts, the “Images of the in vivo nuclear staining” value was “Strong”.
